Reference: patent US12410152B2, “Oxazole and thioazole-type cullin ring ubiquitin ligase compounds and uses thereof” (Proxygen GmbH, priority 2019, dated 2025)

Biological target: T1, CDK12:CCNK and DDB1:CUL4B (Homo sapiens, UniProt Q16531+Q9NYV4)
T1 construct: expressed in transfected cells; host or cells: 293T (HEK) cells, transient transfection
Test: Biotin proximity labeling with miniTurbo in live cells
Assay type: cell-based
Settings: HEK/293T cells with DDB1- or CDK12-mTurbo fusions, carfilzomib 10 μM
Protocol: The direct, drug-induced association of CDK12:CCNK and DDB1:CUL4B was further assessed in a cellular assay based on enzyme-catalyzed proximity labeling via the efficient biotin ligase miniTurbo (mTurbo) (Branon, T. C. et al. Efficient proximity labeling in living cells and organisms with TurboID. Nat Biotechnol 36, 880-887, doi:10.1038/nbt.4201 (2018)) was performed. This assay enables recording dynamic changes in molecular proximity of an mTurbo-tagged bait protein by streptavidin purification of covalently biotinylated, proximal proteins. For this purpose, c-terminally tagged DDB1, or CDK12 mTurbo-fusions were transiently expressed in HEK cells. Cells were treated for one hour with C020772.1 or vehicle (DMSO) control, including a 30 minute biotin labeling pulse (FIG. 20 g, h). […] Vice-versa, DDB1 was only identified as CDK12 interactor after drug treatment, but was not purified after vehicle-control treatment (FIG. 20 h). […]
One 10-cm culture plate of 293T cells (70%-80% confluent) was transfected with 2 μg of pLenti_DDB1_miniTurbo_V5 or pLenti_CDK12_miniTurbo_V5 using Lipofectamine 2000 (Invitrogen, 11668019). […] Eluates were analyzed by WB. Quantification was performed with ImageJ.

T1 sequence (Q9NYV4 whole entry): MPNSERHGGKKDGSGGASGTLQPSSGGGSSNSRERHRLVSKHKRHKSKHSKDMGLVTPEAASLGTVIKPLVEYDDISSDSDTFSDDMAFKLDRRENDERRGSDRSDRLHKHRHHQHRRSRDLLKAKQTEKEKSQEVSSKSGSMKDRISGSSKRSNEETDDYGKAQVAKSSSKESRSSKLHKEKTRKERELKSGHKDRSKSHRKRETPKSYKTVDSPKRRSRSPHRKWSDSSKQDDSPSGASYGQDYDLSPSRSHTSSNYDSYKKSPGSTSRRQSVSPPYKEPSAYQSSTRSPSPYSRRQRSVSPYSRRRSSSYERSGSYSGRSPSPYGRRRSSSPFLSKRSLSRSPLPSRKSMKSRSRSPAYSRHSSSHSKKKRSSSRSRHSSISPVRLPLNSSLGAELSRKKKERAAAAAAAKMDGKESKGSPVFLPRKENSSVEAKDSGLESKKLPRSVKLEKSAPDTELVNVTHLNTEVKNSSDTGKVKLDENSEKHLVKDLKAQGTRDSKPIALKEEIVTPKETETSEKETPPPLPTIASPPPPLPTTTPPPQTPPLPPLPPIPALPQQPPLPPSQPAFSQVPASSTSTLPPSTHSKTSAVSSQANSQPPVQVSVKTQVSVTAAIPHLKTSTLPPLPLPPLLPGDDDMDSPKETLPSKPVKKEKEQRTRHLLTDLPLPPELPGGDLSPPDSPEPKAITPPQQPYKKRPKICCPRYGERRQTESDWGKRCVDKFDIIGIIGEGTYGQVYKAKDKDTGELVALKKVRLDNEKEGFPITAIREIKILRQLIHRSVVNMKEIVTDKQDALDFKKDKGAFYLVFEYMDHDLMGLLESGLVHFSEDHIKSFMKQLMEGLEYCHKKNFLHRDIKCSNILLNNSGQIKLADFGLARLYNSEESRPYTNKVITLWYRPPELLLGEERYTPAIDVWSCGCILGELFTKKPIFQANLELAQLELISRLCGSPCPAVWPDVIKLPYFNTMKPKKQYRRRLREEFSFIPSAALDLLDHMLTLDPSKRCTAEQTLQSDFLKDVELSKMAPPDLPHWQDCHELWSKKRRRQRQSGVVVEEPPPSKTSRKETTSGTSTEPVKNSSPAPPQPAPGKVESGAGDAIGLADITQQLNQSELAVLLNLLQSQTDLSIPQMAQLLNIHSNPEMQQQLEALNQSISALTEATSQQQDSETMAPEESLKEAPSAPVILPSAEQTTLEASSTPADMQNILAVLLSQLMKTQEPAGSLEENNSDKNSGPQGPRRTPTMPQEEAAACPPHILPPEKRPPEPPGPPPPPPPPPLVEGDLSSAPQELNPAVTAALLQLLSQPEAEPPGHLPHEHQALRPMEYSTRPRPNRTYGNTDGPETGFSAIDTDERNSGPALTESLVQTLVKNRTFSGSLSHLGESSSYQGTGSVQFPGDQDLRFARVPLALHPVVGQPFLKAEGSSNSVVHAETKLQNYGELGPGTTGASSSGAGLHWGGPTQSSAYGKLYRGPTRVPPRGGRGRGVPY
T1 sequence (O75909 whole entry partner): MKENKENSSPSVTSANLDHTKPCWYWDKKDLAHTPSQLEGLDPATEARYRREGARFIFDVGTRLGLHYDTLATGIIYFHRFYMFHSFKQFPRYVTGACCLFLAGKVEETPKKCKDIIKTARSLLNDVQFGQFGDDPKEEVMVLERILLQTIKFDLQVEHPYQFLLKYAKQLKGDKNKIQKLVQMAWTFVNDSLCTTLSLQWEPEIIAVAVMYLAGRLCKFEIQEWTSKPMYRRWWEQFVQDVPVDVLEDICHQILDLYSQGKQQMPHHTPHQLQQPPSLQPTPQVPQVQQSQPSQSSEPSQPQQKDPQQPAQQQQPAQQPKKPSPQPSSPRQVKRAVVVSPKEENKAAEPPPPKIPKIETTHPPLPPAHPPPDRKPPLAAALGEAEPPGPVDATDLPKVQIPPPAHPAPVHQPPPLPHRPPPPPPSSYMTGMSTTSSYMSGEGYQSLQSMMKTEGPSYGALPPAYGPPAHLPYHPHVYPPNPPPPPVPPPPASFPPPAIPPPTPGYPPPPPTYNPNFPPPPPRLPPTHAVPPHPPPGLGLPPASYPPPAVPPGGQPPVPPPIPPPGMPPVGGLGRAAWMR
T1 sequence (Q16531 whole entry): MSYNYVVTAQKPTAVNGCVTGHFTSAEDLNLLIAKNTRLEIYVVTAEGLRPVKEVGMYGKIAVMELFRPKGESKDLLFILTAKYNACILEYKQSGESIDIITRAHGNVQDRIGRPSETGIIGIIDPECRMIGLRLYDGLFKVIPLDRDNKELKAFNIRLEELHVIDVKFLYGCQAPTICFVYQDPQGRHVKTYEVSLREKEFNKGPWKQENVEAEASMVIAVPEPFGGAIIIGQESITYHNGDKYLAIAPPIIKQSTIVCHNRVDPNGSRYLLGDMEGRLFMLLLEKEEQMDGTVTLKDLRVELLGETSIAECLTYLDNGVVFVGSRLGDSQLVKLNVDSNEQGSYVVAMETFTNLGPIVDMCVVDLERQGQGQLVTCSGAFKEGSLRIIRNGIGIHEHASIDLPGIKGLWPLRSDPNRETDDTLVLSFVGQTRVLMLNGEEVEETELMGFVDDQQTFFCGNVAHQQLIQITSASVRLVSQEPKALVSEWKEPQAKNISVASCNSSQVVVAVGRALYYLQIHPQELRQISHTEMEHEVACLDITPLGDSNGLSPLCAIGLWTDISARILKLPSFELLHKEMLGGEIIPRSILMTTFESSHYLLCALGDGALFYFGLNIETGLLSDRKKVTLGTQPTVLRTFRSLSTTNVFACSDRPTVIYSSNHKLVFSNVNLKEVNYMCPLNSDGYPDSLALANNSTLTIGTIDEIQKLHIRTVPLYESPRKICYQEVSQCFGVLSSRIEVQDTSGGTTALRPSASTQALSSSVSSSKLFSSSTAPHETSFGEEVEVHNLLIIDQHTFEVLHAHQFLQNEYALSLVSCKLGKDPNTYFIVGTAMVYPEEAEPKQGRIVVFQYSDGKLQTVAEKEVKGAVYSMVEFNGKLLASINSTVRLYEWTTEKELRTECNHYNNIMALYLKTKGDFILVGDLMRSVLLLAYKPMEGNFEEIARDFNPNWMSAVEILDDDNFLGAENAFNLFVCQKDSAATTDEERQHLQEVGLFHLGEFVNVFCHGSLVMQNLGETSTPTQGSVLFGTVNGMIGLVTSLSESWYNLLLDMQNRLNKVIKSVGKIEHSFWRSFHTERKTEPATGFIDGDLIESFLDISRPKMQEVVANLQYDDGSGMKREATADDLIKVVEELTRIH

Compound: O=C(CSc1nnc2c(n1)[nH]c1ccccc12)Nc1ccc(Cl)cn1 [IC020772.1]
- drug-induced CDK12-DDB1 proximity (biotin labeling): CDK12 interactions with DDB1 were exclusively identified in the presence of IC020772.1
